# Measured values: patent publication US20190077795A1, “ARGININE […] INHIBITORS AND USES THEREOF” (Epizyme, Inc., priority 2014, published 2019)
# Columns and labels:
# human PRMT1 = molecular target: T1, human PRMT1 (Homo sapiens, UniProt Q99873); assay: PRMT1 Biochemical Assay; details: peptide substrate, 3H-SAM Flashplate assay; read-out: PRMT1 IC50
# T1 construct: GST-tagged PRMT1; made in house; host or cells: High Five insect cells (baculovirus, pFastBac1)
# Outline: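 GST-tagged PRMT1 from baculovirus-infected cells, preincubated with compounds 30 min at room temperature in 20 mM Bicine pH 7.6, 1 mM TCEP, 0.005% BSG, 0.002% Tween 20. Reaction started with ³H-SAM plus biotinylated peptide, stopped with 300 µM cold SAM.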
# human PRMT6 = molecular target: T2, human PRMT6 (Homo sapiens, UniProt Q96LA8); assay: PRMT6 Biochemical Assay; details: peptide substrate, 3H-SAM Flashplate assay; read-out: PRMT6 IC50
# T2 construct: Flag-PRMT6-His; made in house; host or cells: HEK 293F cells (BacMam baculovirus, pFastBacMam)
# [1] = system: mono-methyl arginine in RKO cells; assay: RKO Methylation Assay, In Cell Western (ICW); format: cell-based; details: 72 hours
# human PRMT8 = human PRMT8 (Homo sapiens, UniProt Q9NR22); assay: PRMT8 Biochemical Assay; details: PRMT8 IC50 (uM), peptide substrate, 3H-SAM Flashplate assay
# Sequence of human PRMT8 (Q9NR22 whole entry): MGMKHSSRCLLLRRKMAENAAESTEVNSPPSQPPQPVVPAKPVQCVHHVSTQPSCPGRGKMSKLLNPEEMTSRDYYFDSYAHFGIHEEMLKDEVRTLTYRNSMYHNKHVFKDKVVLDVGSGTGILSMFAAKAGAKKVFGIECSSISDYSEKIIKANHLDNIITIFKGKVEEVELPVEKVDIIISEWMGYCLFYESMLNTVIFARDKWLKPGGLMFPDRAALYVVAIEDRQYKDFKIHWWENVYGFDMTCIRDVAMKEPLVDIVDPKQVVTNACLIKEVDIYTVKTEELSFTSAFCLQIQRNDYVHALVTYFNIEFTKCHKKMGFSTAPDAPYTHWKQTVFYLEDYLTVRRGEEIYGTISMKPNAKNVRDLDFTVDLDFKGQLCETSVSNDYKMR
# From the text: S-adenosylmethionine (SAM), S-adenosylhomocysteine (SAH), bicine, Tween20, dimethylsulfoxide (DMSO), bovine skin gelatin (BSG), isopropyl-3-D-thiogalactopyranoside (IPTG), and Tris(2-carboxyethyl)phosphine hydrochloride solution (TCEP) were purchased from Sigma-Aldrich at the highest level of purity possible. ^3H-SAM was purchase from American Radiolabeled Chemicals with a specific activity of 80 Ci/mmol. 384-well streptavidin Flashplates were purchased from PerkinElmer.
# E. coli (BL21(DE3) Gold, Stratagene) made competent by the CaCl2 method were transformed with the PRMT8 construct and ampicillin selection. Protein over-expression was accomplished by growing the PRMT8 expressing E. coli clone and inducing expression with 0.3 mM IPTG at 16° C. The culture was grown for 12 hours, harvested by centrifugation, and stored at −80° C. for purification.
# GST-tagged PRMT8 was eluted with 50 mM Tris, 2 mM glutathione, pH 7.8. Pooled fractions were cleaved by thrombin (10U) and dialysed in buffer A. GST was removed by reloading the cleaved protein sample onto glutathione sepharose column and PRMT8 was collected in the flow-through fractions. PRMT8 was purified further by ceramic hydroxyapatite chromatography. The column was washed with 50 mM phosphate buffer, 100 mM NaCl, 5% glycerol, 5 mM β-mercaptoethanol, pH 7.8 and PRMT8 was eluted by 100 mM phosphate in the same buffer. Protein was concentrated and buffer was exchanged to 50 mM Tris, 300 mM NaCl, 10% glycerol, 5 mM β-mercaptoethanol, pH 7.8 by ultrafiltration.
# General Procedure for PRMT8 Enzyme Assays on Peptide Substrates.
# The assays were all performed in a buffer consisting of 20 mM Bicine (pH=7.6), 1 mM TCEP, 0.005% BSG, and 0.002% Tween 20, prepared on the day of use. […] DMSO (1 ul) was added to Columns 11, 12, 23, 24, rows A-H for the maximum signal control and 1 ul of SAH, a known product and inhibitor of PRMT8, was added to columns 11, 12, 23, 24, rows I-P for the minimum signal control. A cocktail (40 ul) containing the PRMT8 enzyme was added by Multidrop Combi (Thermo-Fisher). The compounds were allowed to incubate with PRMT8 for 30 min at room temperature, then a cocktail (10 ul) containing ^3H-SAM and peptide was added to initiate the reaction (final volume=51 ul). […] The assays were stopped by the addition of non-radiolabeled SAM (10 ul) to a final concentration of 400 uM, which dilutes the ^3H-SAM to a level where its incorporation into the peptide substrate is no longer detectable. 50 ul of the reaction in the 384-well polypropylene plate was then transferred to a 384-well Flashplate and the biotinylated peptides were allowed to bind to the streptavidin surface for at least 1 hour before being washed once with 0.1% Tween20 in a Biotek ELx405 plate washer. The plates were then read in a PerkinElmer TopCount plate reader to measure the quantity of ^3H-labeled peptide bound to the Flashplate surface, measured as disintegrations per minute (dpm) or alternatively, referred to as counts per minute (cpm).
# Where dpm=disintegrations per minute, cmpd=signal in assay well, and min and max are the respective minimum and maximum signal controls.
# Where top and bottom are the normally allowed to float, but may be fixed at 100 or 0 respectively in a 3-parameter fit. The Hill Coefficient normally allowed to float but may also be fixed at 1 in a 3-parameter fit. Y is the % inhibition and X is the compound concentration.
# T1 sequence (Q99873 with tags, fused parts or gaps): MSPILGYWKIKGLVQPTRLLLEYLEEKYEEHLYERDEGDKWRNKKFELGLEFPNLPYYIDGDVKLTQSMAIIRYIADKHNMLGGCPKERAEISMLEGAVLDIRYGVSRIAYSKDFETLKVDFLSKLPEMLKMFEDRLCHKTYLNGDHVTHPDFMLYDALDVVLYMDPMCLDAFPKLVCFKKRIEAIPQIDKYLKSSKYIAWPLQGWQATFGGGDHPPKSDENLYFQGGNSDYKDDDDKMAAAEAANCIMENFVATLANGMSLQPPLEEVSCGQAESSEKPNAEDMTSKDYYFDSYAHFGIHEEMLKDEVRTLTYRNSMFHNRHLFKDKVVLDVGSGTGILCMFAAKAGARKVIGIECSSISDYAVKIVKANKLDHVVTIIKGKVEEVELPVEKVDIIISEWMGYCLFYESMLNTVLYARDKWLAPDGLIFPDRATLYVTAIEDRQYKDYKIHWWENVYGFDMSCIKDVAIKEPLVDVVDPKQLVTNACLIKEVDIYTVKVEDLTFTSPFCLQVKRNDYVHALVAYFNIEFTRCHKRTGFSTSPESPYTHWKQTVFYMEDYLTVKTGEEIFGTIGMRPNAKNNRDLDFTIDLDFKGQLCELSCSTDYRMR
# T2 sequence (Q96LA8 with tags, fused parts or gaps): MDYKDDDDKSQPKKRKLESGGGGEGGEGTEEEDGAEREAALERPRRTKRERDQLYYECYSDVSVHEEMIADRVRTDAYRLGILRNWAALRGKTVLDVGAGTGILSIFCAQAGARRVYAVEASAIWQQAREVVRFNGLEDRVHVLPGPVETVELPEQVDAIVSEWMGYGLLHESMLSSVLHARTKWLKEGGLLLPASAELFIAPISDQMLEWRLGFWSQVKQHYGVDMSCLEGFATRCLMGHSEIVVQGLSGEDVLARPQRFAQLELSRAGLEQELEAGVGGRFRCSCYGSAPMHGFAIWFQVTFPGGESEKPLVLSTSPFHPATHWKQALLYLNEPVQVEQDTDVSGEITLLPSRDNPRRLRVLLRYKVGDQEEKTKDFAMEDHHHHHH
SMILES,IC50 (human PRMT1) [nM],IC50 (human PRMT6) [nM],IC50 (human PRMT8) [µM],ICW EC30 [1] [nM]
CNCCN(C)Cc1c[nH]nc1-c1ccc(OC(COc2ccccc2)COc2ccccc2)cc1 [Compound 146],7.32,6.24,0.0375,1403
CNCCN(C)Cc1c[nH]nc1-c1ccc(OCCOc2cccc(C(O)CO)c2)cc1 (stereo not shown) [Compound 148],8.22,6.32,0.0398,8688
CN(CCN)Cc1c[nH]nc1-c1ccc2c(c1)OCC(=O)N2 [Compound 152],65.4,8.28,0.459,>20000
CNCCN(C)Cc1ccnn1-c1cc(OCCOC)cc(C(F)(F)F)c1 [Compound 154],2030,> 10000,8.45,>20000

# Second part, led by results:
IC50 (human PRMT1) [nM],IC50 (human PRMT6) [nM],IC50 (human PRMT8) [µM],SMILES,ICW EC30 [1] [nM]
111,16.4,0.162,CNCCN(C)Cc1c[nH]nc1-c1ccc(OC2CC(OCCN3CCOCC3)C2)cc1 (stereo not shown) [Compound 147],4237
172,28.6,0.342,CNCCN(C)Cc1c[nH]nc1-c1ccc(OC2CC(OCCC(O)CO)C2)cc1 (stereo not shown) [Compound 149],>20000
4.3,3.15,0.0133,CNCCN(C)Cc1c[nH]nc1-c1ccc(OCCOc2cccc(C)c2)cc1 [Compound 153],177.6
